Measured values as given in US10065990B2, “Cyclic peptide compound, and preparation method, pharmaceutical composition and use thereof” (HANGZHOU GUANYU BIO-MEDICAL CO., LTD, priority 2013, dated 2018).
Where two headings read alike, the source gives them in different places.

Columns and labels:
HDAC2 = HDAC2 (Homo sapiens, UniProt Q92769); experiment: HDAC biochemical activity measurement (fluorescent substrate deacetylation);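 note: HDAC2 enzyme with an acetyl-lysine fluorescent substrate, then developer added, fluorescence read at excitation 360 nm and emission 460 nm, inhibition measured across several compound concentrations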; conditions: 37° C. 30 minutes
HDAC1 = HDAC1 (Homo sapiens, UniProt Q13547); experiment: as above;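 note: fluorogenic acetyl-lysine substrate (20 µM) deacetylated by HDAC1, then developer releases fluorophore read at 360 nm excitation and 460 nm emission, inhibitor incubated 30 min at 37 °C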
HDAC3 = HDAC3 (Homo sapiens, UniProt O15379); experiment: as above;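 note: fluorogenic acetyl-lysine substrate (20 µM) deacetylated by HDAC3, then developer added for 15 min at room temperature, release of fluorophore read at excitation 360 nm, emission 460 nm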
[1] = system: BGC-823 (human gastric cancer cells); experiment: MTT cancer cell growth inhibition; format: cell-based; conditions: Homo sapiens, BGC-823, 72 h, MTT
Outline: (§1)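 MTT viability, 570 nm, GI50. Cells 1500/well; compound 72 h at final 10^−5–10^−10 M in triplicate.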

[2] = system: Huh-7 (human hepatoma cells); experiment: MTT cancer cell growth inhibition; format: cell-based; conditions: Homo sapiens, Huh-7, 72 h, MTT, 72 hours incubation, Huh-7 cells; read-out: GI50 Huh-7
Outline: as §1

[3] = system: SGC-7901 (human gastric cancer cells); experiment: MTT cancer cell growth inhibition; format: cell-based; conditions: Homo sapiens, SGC-7901, 72 h, MTT, 72 hours incubation, SGC-7901 cells; read-out: GI50 SGC-7901
Outline: as §1

[4] = system: DU145 (human prostate cancer cells); experiment: MTT cancer cell growth inhibition; format: cell-based; conditions: Homo sapiens, DU-145, 72 h, MTT
Outline: as §1

[5] = system: K562 (human leukemia cells); experiment: MTT cancer cell growth inhibition; format: cell-based; conditions: Homo sapiens, K562, 72 h, MTT, 72 hours incubation, K562 cells; read-out: GI50 K562
Outline: as §1

[6] = system: Hela (human cervical cancer cells); experiment: MTT cancer cell growth inhibition; format: cell-based; conditions: Homo sapiens, HeLa, 72 h, MTT
Outline: as §1

[7] = system: lncap (prostate cancer cells); experiment: MTT cancer cell growth inhibition; format: cell-based; conditions: Homo sapiens, LNCaP, 72 h, MTT
Outline: as §1

[8] = system: MOLT-4 (human acute lymphoblastic leukemia cells); experiment: MTT cancer cell growth inhibition; format: cell-based; conditions: Homo sapiens, MOLT-4, 72 h, MTT
Outline: as §1

[9] = system: H1975 (non-small cell lung adenocarcinoma); experiment: MTT cancer cell growth inhibition; format: cell-based; conditions: Homo sapiens, NCI-H1975, 72 h, MTT, 72 hours incubation, H1975 cells; read-out: GI50 H1975
Outline: as §1

[10] = system: N-87 (human gastric cancer cells); experiment: MTT cancer cell growth inhibition; format: cell-based; conditions: Homo sapiens, 72 h, MTT, 72 hours incubation, N-87 cells; read-out: GI50 N-87
Outline: as §1

[11] = system: U937 (human leukemia cells); experiment: MTT cancer cell growth inhibition; format: cell-based; conditions: Homo sapiens, U-937, 72 h, MTT
Outline: as §1

[12] = system: A549 (human lung cancer cells); experiment: MTT cancer cell growth inhibition; format: cell-based; conditions: Homo sapiens, A549, 72 h, MTT
Outline: as §1

[13] = system: MDA-MB-231 (breast cancer cells); experiment: MTT cancer cell growth inhibition; format: cell-based; conditions: Homo sapiens, MDA-MB-231, 72 h, read-out: GI50 MDA-MB-231, MTT, 72 hours incubation, MDA-MB-231 cells
Outline: as §1

[14] = system: KBM5-T315I (human chronic myelogenous leukemia); experiment: MTT cancer cell growth inhibition; format: cell-based; conditions: Homo sapiens, 72 h, MTT, 72 hours incubation, KBM5-T315I cells; read-out: GI50 KBM5-T315I
Outline: as §1

[15] = system: Bel-7402 (human hepatoma cells); experiment: MTT cancer cell growth inhibition; format: cell-based; conditions: Homo sapiens, Bel-7402, 72 h, MTT, 72 hours incubation, Bel-7402 cells; read-out: GI50 Bel-7402
Outline: as §1

[16] = system: PANC-1 (Pac-1, human pancreatic cancer cells); experiment: MTT cancer cell growth inhibition; format: cell-based; conditions: Homo sapiens, PANC-1, 72 h, MTT
Outline: as §1

[17] = system: KBM-5 (human chronic myelogenous leukemia); experiment: MTT cancer cell growth inhibition; format: cell-based; conditions: Homo sapiens, KBM5, 72 h, MTT, 72 hours incubation, KBM-5 cells; read-out: GI50 KBM-5
Outline: as §1

[18] = system: HT1080 (human fibrosarcoma cells); experiment: MTT cancer cell growth inhibition; format: cell-based; conditions: Homo sapiens, HT-1080, 72 h, MTT
Outline: as §1

[19] = system: MCF-7 (human breast cancer cells); experiment: MTT cancer cell growth inhibition; format: cell-based; conditions: Homo sapiens, MCF7, 72 h
Outline: as §1

[20] = system: HCC827 (human non-small cell lung cancer cells); experiment: MTT cancer cell growth inhibition; format: cell-based; conditions: Homo sapiens, HCC827, 72 h, MTT, 72 hours incubation, HCC827 cells; read-out: GI50 HCC827
Outline: as §1

[21] = HDAC1, 37° C. 30 minutes, read-out: IC50 HDAC1
[22] = read-out: IC50 HDAC3, HDAC3, 37° C. 30 minutes
[23] = 72 hours incubation, read-out: GI50 BG
[24] = 72 hours incubation, read-out: GI50 Du1
[25] = 72 hours incubation, read-out: GI50 Hela
[26] = 72 hours incubation, read-out: GI50 lnca
[27] = 72 hours incubation, read-out: GI50 Mol
[28] = 72 hours incubation, read-out: GI50 U93
[29] = 72 hours incubation, read-out: GI50 A54
[30] = 72 hours incubation, read-out: GI50 PAN
[31] = 72 hours incubation, read-out: GI50 HT1
[32] = 72 hours incubation, read-out: GI50 MCF

HDAC1, sequence (Q13547 whole entry, species assumed): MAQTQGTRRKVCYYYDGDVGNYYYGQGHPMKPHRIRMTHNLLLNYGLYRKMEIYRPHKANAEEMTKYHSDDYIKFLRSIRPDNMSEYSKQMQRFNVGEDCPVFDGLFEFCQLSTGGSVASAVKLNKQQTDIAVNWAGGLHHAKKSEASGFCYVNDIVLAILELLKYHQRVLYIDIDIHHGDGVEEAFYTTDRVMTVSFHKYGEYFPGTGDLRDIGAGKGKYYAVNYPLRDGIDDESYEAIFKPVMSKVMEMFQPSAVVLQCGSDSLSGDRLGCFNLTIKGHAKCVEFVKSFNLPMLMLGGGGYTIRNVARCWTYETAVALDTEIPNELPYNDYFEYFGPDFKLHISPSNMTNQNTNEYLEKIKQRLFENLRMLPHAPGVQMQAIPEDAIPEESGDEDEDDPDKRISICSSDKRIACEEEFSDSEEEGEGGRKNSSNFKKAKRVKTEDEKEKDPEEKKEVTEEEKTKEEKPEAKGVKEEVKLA
HDAC2, sequence (Q92769 whole entry, species assumed): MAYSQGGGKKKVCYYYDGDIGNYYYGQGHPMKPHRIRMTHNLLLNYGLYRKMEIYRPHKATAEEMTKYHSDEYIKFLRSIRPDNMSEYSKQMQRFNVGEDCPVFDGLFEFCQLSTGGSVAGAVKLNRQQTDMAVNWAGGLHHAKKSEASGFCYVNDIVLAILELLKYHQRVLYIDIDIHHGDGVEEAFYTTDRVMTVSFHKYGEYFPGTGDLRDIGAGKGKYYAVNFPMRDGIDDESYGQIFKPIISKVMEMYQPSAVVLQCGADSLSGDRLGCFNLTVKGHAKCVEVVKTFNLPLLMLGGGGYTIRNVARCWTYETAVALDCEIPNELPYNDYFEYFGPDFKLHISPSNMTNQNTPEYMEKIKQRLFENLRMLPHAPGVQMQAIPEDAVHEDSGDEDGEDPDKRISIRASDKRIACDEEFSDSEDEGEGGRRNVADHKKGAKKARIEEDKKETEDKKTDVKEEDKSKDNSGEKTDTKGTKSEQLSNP
HDAC3, sequence (O15379 whole entry, species assumed): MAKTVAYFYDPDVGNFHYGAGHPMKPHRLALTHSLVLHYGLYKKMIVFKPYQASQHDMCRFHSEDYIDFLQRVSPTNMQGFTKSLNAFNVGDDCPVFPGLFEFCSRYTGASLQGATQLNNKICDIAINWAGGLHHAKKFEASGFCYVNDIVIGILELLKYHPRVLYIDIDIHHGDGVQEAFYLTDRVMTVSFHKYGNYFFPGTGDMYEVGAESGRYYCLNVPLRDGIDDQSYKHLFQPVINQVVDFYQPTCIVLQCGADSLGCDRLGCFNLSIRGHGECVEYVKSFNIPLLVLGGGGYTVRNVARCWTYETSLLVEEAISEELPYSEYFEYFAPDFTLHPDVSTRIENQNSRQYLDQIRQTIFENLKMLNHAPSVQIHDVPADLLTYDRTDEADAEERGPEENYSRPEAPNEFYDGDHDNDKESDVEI
HDAC3, sequence (Q9Y618 395-489 partner limits assumed, species assumed): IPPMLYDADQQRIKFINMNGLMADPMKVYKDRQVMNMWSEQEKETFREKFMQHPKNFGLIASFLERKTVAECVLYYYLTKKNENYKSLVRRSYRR

IC50 (HDAC2) [nM]	IC50 (HDAC1; [21]) [nM]	IC50 (HDAC3; [22]) [nM]	GI50 [2] [nM]	GI50 [3] [nM]	GI50 [5] [nM]	GI50 [9] [nM]	GI50 [10] [nM]	GI50 [13] [nM]	GI50 [14] [nM]	GI50 [15] [nM]	GI50 [17] [nM]	GI50 [20] [nM]	GI50 [1, 23] [nM]	GI50 [4, 24] [nM]	GI50 [6, 25] [nM]	GI50 [7, 26] [nM]	GI50 [8, 27] [nM]	GI50 [11, 28] [nM]	GI50 [12, 29] [nM]	SMILES	other results
53	92	32	92	36	53	73	83	35	12	29	23	28	–	–	–	–	–	–	–	C=C1NC(=O)c2cccc(n2)CNC(=O)C[C@@H](/C=C/CCSC(=O)CCCCCCC)OC(=O)[C@H](C(C)C)NC1=O [Compound 244]	IC50 (HDAC1; Table 2, read-out: IC50 HDAC1, a (compounds of the present invention)): < 100 nM; GI50 ([1]; BGC-823 cells, 72 hours incubation, read-out: GI50 BG): 390 nM; GI50 ([1]; 72 hours, present invention, read-out: GI50 BGC823, a): 390 nM; GI50 ([4]; DU145 cells, 72 hours incubation, read-out: GI50 Du1): 950 nM; GI50 ([4]; 72 hours, present invention, read-out: GI50 Du145, a): 950 nM; GI50 ([6]; 72 hours, present invention, read-out: GI50 Hela, a): 8 nM; GI50 ([7]; 72 hours, present invention, read-out: GI50 lncap, a): 990 nM; GI50 ([7]; lncap cells, 72 hours incubation, read-out: GI50 lnca): 990 nM; GI50 ([8]; MOLT-4 cells, 72 hours incubation, read-out: GI50 Mol): 110 nM; GI50 ([8]; 72 hours, present invention, read-out: GI50 Molt-4, a): 110 nM; GI50 ([11]; 72 hours, present invention, read-out: GI50 U937, a): 890 nM; GI50 ([11]; U937 cells, 72 hours incubation, read-out: GI50 U93): 890 nM; GI50 ([12]; A549 cells, 72 hours incubation, read-out: GI50 A54): 120 nM; GI50 ([12]; 72 hours, present invention, read-out: GI50 A549, a): 120 nM; GI50 ([16]; 72 hours, present invention, read-out: GI50 PANC-1, a): 770 nM; GI50 ([16]; PANC-1 cells, 72 hours incubation, read-out: GI50 PAN): 770 nM; GI50 ([18]; HT1080 cells, 72 hours incubation, read-out: GI50 HT1): 760 nM; GI50 ([18]; 72 hours, present invention, read-out: GI50 HT1080, a): 760 nM; GI50 ([19]; 72 hours, present invention, read-out: GI50 MCF7, a): 330 nM; GI50 ([19]; MCF-7 cells, 72 hours incubation, read-out: GI50 MCF): 330 nM
62	45	38	31	51	27	61	53	31	67	91	88	91	50	20	80	30	30	60	50	C/C=C1\NC(=O)c2cc(F)cc(n2)CNC(=O)C[C@@H](/C=C/CCSC=O)OC(=O)[C@H](C(C)C)NC1=O [Compound 52]	IC50 (HDAC1; Table 3, column C, read-out: IC50 HDAC1, C (six-membered ring with substituents)): 45 nM; GI50 [16, 30]: 90 nM; GI50 [18, 31]: 90 nM; GI50 [19, 32]: 60 nM
129	273	–	24	49	39	29	37	24	350	43	37	43	30	30	30	20	20	20	40	C/C=C1\NC(=O)c2ccc(F)c(n2)CNC(=O)C[C@@H](/C=C/CCSC(C)=O)OC(=O)[C@H](CCCCN)NC1=O [Example 74]	IC50 (HDAC3): 231 nM; GI50 [16, 30]: 40 nM; GI50 [18, 31]: 40 nM; GI50 [19, 32]: 350 nM
